In patent US10537100B2, “Substituted methylenedioxybenzyl compounds and their use as synergists” (Endura SPA, priority 2015, dated 2020):
Marks after values point to notes of the source that are not given here.

Key:
Assay type in all cases: in vivo
[1] = system: Myzus persicae clone highly resistant to insecticide; test: Contact test on treated plant (pea seedling dip), synergist with neonicotinoid; settings: synergist 1 g/L, mortality assessed at 48 hours, Abbott's formula
Procedure: Laboratory bred Myzus persicae clone highly resistant to insecticide, derived from a field collected population after control failure, mixed age apterous parthenogenetic females adults, were assayed for the test.
Four (4) different commercially available formulated insecticides were used and diluted as follow: • imidacloprid: 1000 mL of test solution was prepared diluting in water 20 μL of commercial formulation, containing 200 g/L of a.i., equivalent to 0.004 g of imidacloprid per liter of insecticidal solution; • thiacloprid: 1000 mL of test solution was prepared diluting in water 24 μL of commercial formulation containing 480 g/L of a.i, equivalent to 0.012 g of thiacloprid per liter of insecticidal solution;
The compounds of Example 1 and Example 2 were formulated in the form of emulsified concentrate (EC).
The following amount of the EC formulations were added to the above described insecticidal solution of insecticide to have a final concentration of synergist equal to 1 g/L:
20 mL of test formulations were used to wet by dipping for 5″ a small pea seedling (1-1.5 cm long). Seedlings were left at room temperature in a fume hood and allowed to dry for 15″. After drying 10-15 apterous parthenogenetic females were moved to the seedling and allowed to settle. Mortality produced by pyrethroids was assessed 24 hours later. Mortality produced by neonicotinoids was assessed 48 hours later.
Three replicates were executed each composed by 2 subreplicates (seedlings) and 60-90 specimens were used per test formulation.
In parallel with the test, the mortality of aphids in an untreated control replicate (seedlings dipped in water) was determined using the same conditions and methods.
The efficacy was calculated according the Abbott's formula: […]

[2] = system: Musca domestica; test: Contact test on treated glass surfaces, synergist with cypermethrin
Procedure: Laboratory bred Musca domestica species, 4-5 days old mixed sex imagoes derived from a field collected strain were assayed for the test. 1000 ml of test solutions were prepared diluting in water 6.06 grams of cypermethrin commercial formulation, equivalent to 0.224 g of cypermethrin per liter of insecticidal solution and a suitable amount of synergist such as to have a ratio between cypermethryn and synergists=1:13. The synergists were formulated in the form of emulsified concentrate (EC). The following amount of the formulations of synergist EC were added to the above described insecticidal solution of cypermethrin.
3.83 g of EC formulation containing 77.1% (w/w) of the compound of Example 2 (5-n-butyl-6-((prop-2-ynyloxy)methyl)benzo[d][1,3]dioxole)
3.57 g of EC formulation containing 83% (w/w) of the comparison compound 5-(but-2-ynyloxymethyl)-6-n-propyl-benzo[1,3]dioxole (EN126) corresponding to 2.95 g of the compound of the invention and of the comparison product per liter of test formulation
1 ml of each test formulation was applied to each individual grass surface of 100 cm^2 by means of a hand held pump sprayer on a scale measuring by 2 decimal precision, being the acceptable limit of divergence: +/−10%. The treated glass surfaces were left at room temperature for 24 hours after treatment and prior to be used. 40 mixed sex Musca domestica imagoes (20 males and 20 females) were selected and placed into a 500 cm^3 glass cylinders covered with an untreated glass surface until the start of the study. Five replicates were executed, altogether 200 houseflies (100 males and 100 females) were used per test formulation. At the beginning of the test, the untreated glass covering the glass cylinder was replaced with a glass surface treated with the test formulation. The exposure time was 30 minutes. After this period of time, the treated glass surfaces were removed and replaced with untreated ones. During the test water and food (water/sugar solution) were provided to the test insect inside the glass cylinders
In parallel with the test, the mortality of flies in an untreated control replicate was determined using the same conditions and methods. Throughout the control test, non-treated glass surfaces covered the glass cylinders. The maximum mortality rate allowed within the control group to consider the test representative was 10% after 24 hours. If above this value, the test was not considered representative and was repeated. During the trials, no deviance has been noted.
The test conditions were as follows: • temperature: 23-25° C. • relative humidity: min. 60% • light regime: 12 hrs dark/12 hrs natural illumination.
The reading intervals of the number of knocked down flies were: 10-20-30-40-50-60-90-120-180 minutes. Mortality was determined after 24 hours.
The efficacy was calculated according the following formula

[3] = system: Blattella germanica; test: Contact test on treated glass vials, synergist with cypermethrin; settings: cypermethrin 120 μg/mL, synergist 1.0 g/L; for knock down: average of 4 repetitions
Procedure: Laboratory bred B. germanica species, mixed ages (pre-immaginal and imagoes) and mixed sex were assayed for the test.
An insecticide stock solution was prepared with 150 μL of cypermethrin commercial formulation and diluted to 15 μL/mL with technical acetone to a final volume of 10 mL. The solution contained 450 μg/mL of cypermethrin per liter of insecticidal solution
Stock solution of the compounds of Example 1 and Example 2 were prepared dissolving around 10 mg of EC formulations containing compounds of the Example 1 and Example 2 in technical acetone to have a final concentration of 1.365 μg/mL.
Stock solution (1650 μL) was diluted to 2250 μL with acetone or with stock of insecticide in acetone to have respectively a final concentration of 1 g/L of synergist (as active ingredient) or 0.12 g/L of cypermethrin+1 g/L of the compounds of Example 1 and Example 2. Insecticide alone was prepared adding 600 μL of stock solution to 1650 μL of acetone.
Glass vials (internal surface 35 cm^2) were treated with 350 μL of insecticide solution and allowed to dry in a fume hood on a vial rotator and used as soon as the acetone was fully evaporated.
B. germanica specimens were introduced singly in vials. 20 specimens were tested for each combination of product. The exposure time to product residues was 30 minutes. After this duration the specimens were transferred to an untreated vial ad provided with food and water.
In parallel within the test, a control study has been set up with the same conditions and methods using acetone only treated vials.
The test conditions were as follows: • temperature: 22-24° C. during knock down evaluation (t: 0-30′); 26° C. during mortality assessment (t: 24 h) • relative humidity: min. 60% • light regime: 8 hrs dark/16 hrs natural illumination.
The reading intervals of the number of knocked down and the number of dead insects were: 5-10-15-20-25-30 minutes. A final reading was done 24 hours after the starting of the exposure.
The calculation model of efficacy is according to Abbott's formula (Abbott W S (1925) A method for computing the effectiveness of an insecticide. J. Econ. Entomol. 18: 265-267):
The results are reported in the following Table 5 and represent an average of 4 repetitions.

N#C/N=C1\SCCN1Cc1ccc(Cl)nc1 [thiacloprid, reference compound]
Efficacy of the tested compounds ([1]; thiacloprid (0.012 g per liter)): 36.242

O=[N+]([O-])NC1=NCCN1Cc1ccc(Cl)nc1 [Imidacloprid, imidacloprid, reference compound]
Efficacy of the tested compounds ([1]; Imidacloprid (0.004 g per liter)): 14.2

CC1(C)C(C=C(Cl)Cl)C1C(=O)OC(C#N)c1cccc(Oc2ccccc2)c1 (centres unmarked) [Cypermethrin, cypermethrin]
mortality by % ([2]; 24 h, 30 min exposure, cypermethrin formulation 6.06 g/l (0.224 g/l a.i.), cypermethrin:synergist 1:13): 61%
Efficacy % ([2]; calculated from 24 h mortality against untreated control): 58.95%
knock down by % ([2]; reading at 10′, 30 min exposure, cypermethrin formulation 6.06 g/l (0.224 g/l a.i.), cypermethrin:synergist 1:13): 6* %
knock down by % ([2]; reading at 20′, 30 min exposure, cypermethrin formulation 6.06 g/l (0.224 g/l a.i.), cypermethrin:synergist 1:13): 46%
knock down by % ([2]; reading at 30′, 30 min exposure, cypermethrin formulation 6.06 g/l (0.224 g/l a.i.), cypermethrin:synergist 1:13): 68%
knock down by % ([2]; reading at 40′, 30 min exposure, cypermethrin formulation 6.06 g/l (0.224 g/l a.i.), cypermethrin:synergist 1:13): 83%
knock down by % ([2]; reading at 50′, 30 min exposure, cypermethrin formulation 6.06 g/l (0.224 g/l a.i.), cypermethrin:synergist 1:13): 85%
knock down by % ([2]; reading at 60′, 30 min exposure, cypermethrin formulation 6.06 g/l (0.224 g/l a.i.), cypermethrin:synergist 1:13): 85%
knock down by % ([2]; reading at 90′, 30 min exposure, cypermethrin formulation 6.06 g/l (0.224 g/l a.i.), cypermethrin:synergist 1:13): 82%
knock down by % ([2]; reading at 120′, 30 min exposure, cypermethrin formulation 6.06 g/l (0.224 g/l a.i.), cypermethrin:synergist 1:13): 76%
knock down by % ([2]; reading at 180′, 30 min exposure, cypermethrin formulation 6.06 g/l (0.224 g/l a.i.), cypermethrin:synergist 1:13): 73%
mortality at 120 µg/mL ([3]; Blattella germanica, 24 h after start of 30 min exposure, Abbott's formula): 22.9%
knock down ([3]; reading at 5′): 0
knock down ([3]; reading at 10′): 6.7
knock down ([3]; reading at 15′): 20
knock down ([3]; reading at 20′): 40
knock down ([3]; reading at 25′): 56.7
knock down ([3]; reading at 30′): 60
